Measurements reported in patent US9353104B2, “Substituted pyridizinone derivatives as PDE10 inhibitors” (priority 2013, dated 2016).

What follows are molecules tested against human PDE10A2 (Homo sapiens (Human), UniProt Q9Y233) (assay: PDE10 fluorescence polarization (IMAP FP) inhibition assay). Details: human PDE10A2 lysate, FAM-labeled cAMP 50 nM, room temperature; read-out: PDE10A Ki.
Format: biochemical
Procedure: The activity of the compounds in accordance with the present invention as PDE10 inhibitors may be readily determined without undue experimentation using a fluorescence polarization (FP) methodology that is well known in the art (Huang, W., et al., J. Biomol Screen, 2002, 7: 215). […] In a typical experiment the PDE10 inhibitory activity of the compounds of the present invention was determined in accordance with the following experimental method. PDE10A2 was amplified from human fetal brain cDNA (Clontech, Mountain View, Calif.) using a forward primer corresponding to nucleotides 56-77 of human PDE10A2 (Accession No. AF127480, Genbank Identifier 4894716), containing a Kozak consensus sequence, and a reverse primer corresponding to nucleotides 2406-2413 of human PDE10A2 (Accession No. AF127480, Genbank Identifier 4894716). Amplification with Easy-A polymerase (Stratagene, La Jolla, Calif.) was 95° C. for 2 minutes followed by thirty three cycles of 95° C. for 40 seconds, 55° C. for 30 seconds, and 72° C. for 2 minutes 48 seconds. Final extension was 72° C. for 7 minutes. The PCR product was TA cloned into pcDNA3.2-TOPO (Invitrogen, Carlsbad, Calif.) according to standard protocol. AD293 cells with 70-80% confluency were transiently transfected with human PDE10A2/pcDNA3.2-TOPO using Lipofectamine 2000 according to manufacturer specifications (Invitrogen, Carlsbad, Calif.). Cells were harvested 48 hours post-transfection and lysed by sonication (setting 3, 10×5 sec pulses) in a buffer containing 20 mM HEPES, 1 mM EDTA and protease inhibitor cocktail (Roche). Lysate was collected by centrifugation at 75,000×g for 20 minutes. Supernatant containing the cytoplasmic fraction was used for evaluation of PDE10A2 activity. The fluorescence polarization assay for cyclic nucleotide phosphodiesterases was performed using an IMAP® FP kit supplied by Molecular Devices, Sunnyvale, Calif. (product #R8139). IMAP® technology has been applied previously to phosphodiesterase assays (Huang, W., et al., J. Biomol Screen, 2002, 7: 215). Assays were performed at room temperature in 384-well microtiter plates with an incubation volume of 20.2 μL. Solutions of test compounds were prepared in DMSO and serially diluted with DMSO to yield 8 μL of each of 10 solutions differing by 3-fold in concentration, at 32 serial dilutions per plate. 100% inhibition is determined using a known PDE10 inhibitor, which can be any compound that is present at 5,000 times its Ki value in the assay described as follows, such as papaverine (see Siuciak, et al. Neuropharmacology (2006) 51:386-396; Becker, et al. Behav Brain Res (2008) 186(2):155-60; Threlfell, et al., J Pharmacol Exp Ther (2009) 328(3):785-795), 2-{4-[pyridin-4-yl-1-(2,2,2-trifluoroethyl)-1H-pyrazol-3-yl]phenoxymethyl}quinoline succinic acid or 2-[4-(1-methyl-4-pyridin-4-yl-1H-pyrazol-3-yl)-phenoxymethyl]quinoline succinic acid (see Schmidt, et al. J Pharmacol Exp Ther (2008) 325:681-690; Threlfell, et al., J Pharmacol Exp Ther (2009) 328(3): 785-795). 0% of inhibition is determined by using DMSO (1% final concentrations).
A Labcyte Echo 555 (Labcyte, Sunnyvale, Calif.) is used to dispense 200 nL from each well of the titration plate to the 384 well assay plate. A solution of enzyme (1/1600 dilution from aliquots; sufficient to produce 20% substrate conversion) and a separate solution of FAM-labeled cAMP PDE from Molecular Devices (product #R7506), at a final concentration of 50 nM are made in the assay buffer (10 mM Tris HCl, pH 7.2, 10 mM MgCl2, 0.05% NaN3 0.01% Tween-20, and 1 mM DTT). The enzyme and the substrate are then added to the assay plates in two consecutive additions of 10 μL, and then shaken to mix. The reaction is allowed to proceed at room temperature for 30 minutes. A binding solution is then made from the kit components, comprised of 80% Solution A, 20% Solution B and binding reagent at a volume of 1/600 the total binding solution.

human PDE10A2, sequence (Q9Y233 267-1055): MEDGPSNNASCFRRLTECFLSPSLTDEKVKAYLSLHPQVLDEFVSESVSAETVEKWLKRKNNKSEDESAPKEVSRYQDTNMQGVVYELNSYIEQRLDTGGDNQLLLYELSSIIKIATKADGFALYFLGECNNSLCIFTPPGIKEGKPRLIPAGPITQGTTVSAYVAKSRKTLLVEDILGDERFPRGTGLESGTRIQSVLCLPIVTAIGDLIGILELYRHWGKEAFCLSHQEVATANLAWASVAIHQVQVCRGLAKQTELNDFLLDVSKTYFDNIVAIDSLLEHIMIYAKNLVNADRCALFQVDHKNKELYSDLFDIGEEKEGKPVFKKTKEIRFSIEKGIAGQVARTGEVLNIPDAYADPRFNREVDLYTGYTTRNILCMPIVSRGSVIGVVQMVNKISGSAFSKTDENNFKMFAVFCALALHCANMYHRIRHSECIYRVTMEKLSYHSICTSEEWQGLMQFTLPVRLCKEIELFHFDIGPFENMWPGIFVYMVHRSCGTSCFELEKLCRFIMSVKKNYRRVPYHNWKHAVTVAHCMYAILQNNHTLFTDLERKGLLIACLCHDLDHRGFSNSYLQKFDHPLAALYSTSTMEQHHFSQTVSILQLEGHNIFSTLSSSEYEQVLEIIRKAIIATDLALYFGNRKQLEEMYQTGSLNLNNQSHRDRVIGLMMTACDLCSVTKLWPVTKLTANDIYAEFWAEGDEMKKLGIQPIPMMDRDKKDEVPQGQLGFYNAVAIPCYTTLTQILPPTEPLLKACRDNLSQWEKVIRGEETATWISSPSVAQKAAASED

| Ki [nM] | Structure (SMILES) |
| --- | --- |
| 0.009 | COc1ccc([C@H]2C[C@@H]2COc2cc(NCc3cn(C)nc3C)c(=O)n(C)n2)nc1 [Example 37, 4-((1,3-dimethyl-1H-pyrazol-4-yl)methyl-amino)-6-(((1S,2S)-2-(5-methoxypyridin-2-yl)cyclopropyl)methoxy)-2-methylpyridazin-3(2H)-one] |
| 0.019 | COc1ccc([C@H]2C[C@@H]2COc2cc(NCc3ccc(C)cn3)c(=O)n(C)n2)nc1 [Example 72, 6-(((1S,2S)-2-(5-methoxy-pyridin-2-yl)cyclopropyl-)-methoxy)-2-methyl-4-(((5-methylpyridin-2-yl)-methyl)amino)pyridazin-3(2H)-one] |
| 0.033 | Cc1cccc([C@H]2C[C@@H]2COc2cc(NCc3nnc(C)s3)c(=O)n(C)n2)n1 [Example 115, 2-methyl-4-((5-methyl-1,3,4-thiadiazol-2-yl)methylamino)-6-(((1S,2S)-2-(6-methylpyridin-2-yl)cyclopropyl)methoxy) pyridazin-3(2H)-one] |
| 0.025 | COc1ccc([C@H]2C[C@@H]2COc2cc(NCc3ccc(C)nc3)c(=O)n(C)n2)nc1 [Example 64, 6-(((1S,2S)-2-(5-methoxy-pyridin-2-yl)cyclopropyl-)-methoxy)-2-methyl-4-(((6-methylpyridin-3-yl)methyl)amino)pyridazin-3(2H)-one] |
| 0.037 | Cc1cccc([C@H]2C[C@@H]2COc2cc(NCc3ncc(C)s3)c(=O)n(C)n2)n1 [Example 118, 2-methyl-6-(((1S,2S)-2-(6-methylpyridin-2-yl)cyclo-propyl)methoxy)-4-((5-methylthiazol-2-yl)methyl-amino)pyridazin-3(2H)one] |
| 48.5 | COc1ccc([C@H]2C[C@@H]2COc2cc(NCc3nc(C)ccc3C)c(=O)n(C)n2)nc1 [Example 71, 4-(((3,6-dimethylpyridin-2-yl)methyl)amino)-6-(((1S,2S)-2-(5-methoxy-pyridin-2-yl)cyclopropyl-)-methoxy)-2-methylpyridazin-3(2H)one] |
| 1.3 | Cc1cccc([C@H]2C[C@@H]2COc2cc(NCc3cccnc3)c(=O)n(C)n2)n1 [Example 120, 2-methyl-6-(((1S,2S)-2-(6-methylpyridin-2-yl)cyclo-propyl)methoxy)-4-(pyridin-3-ylmethylamino-)pyridazin-3(2H)-one] |
| 0.41 | COc1ccc([C@H]2C[C@@H]2COc2cc(NCc3ccc(C)c(C)n3)c(=O)n(C)n2)nc1 [Example 69, 4-(((5,6-dimethylpyridin-2-yl)methyl)amino)-6-(((1S,2S)-2-(5-methoxy-pyridin-2-yl)cyclopropyl-)-methoxy)-2-methyl-pyridazin-3(2H)-one] |
| 0.109 | Cc1ncc(CNc2cc(OC[C@H]3C[C@@H]3c3ccc(OC(F)F)cn3)nn(C)c2=O)s1 [Example 29, 6-(((1S,2S)-2-(5-(difluoromethoxy)pyridin-2-yl)cyclopropyl)-methoxy)-2-methyl-4-((2-methylthiazol-5-yl)methyl-amino)pyridazin-3(2H)one] |
| 0.097 | Cc1cnc(CNc2cc(OC[C@H]3C[C@@H]3c3ccn(C)n3)nn(C)c2=O)s1 [Example 26, 2-methyl-6-(((1S,2S)-2-(1-methyl-1H-pyrazol-3-yl)cyclopropyl)methoxy)-4-((5-methylthiazol-2-yl)methylamino)pyridazin-3(2H)-one] |
| 0.197 | Cn1cc(CNc2cc(OC[C@@H]3C[C@H]3c3nn(C)c4ccccc34)nn(C)c2=O)cn1 [Example 113, 2-methyl-6-(((1R,2R)-2-(1-methyl-1H-indazol-3-yl)cyclopropyl)methoxy)-4-((1-methyl-1H-pyrazol-4-yl)methylamino) pyridazin-3(2H)-one] |
| 0.064 | Cc1ncc(CNc2cc(OC[C@H]3C[C@@H]3c3ccc(Cl)cn3)nn(C)c2=O)s1 [Example 34, 6-(((1S,2S)-2-(5-chloropyridin-2-yl)cyclopropyl)methoxy)-2-methyl-4-((2-methylthiazol-5-yl)methylamino)pyridazin-3(2H)-one] |
| 0.121 | Cc1ccc([C@H]2C[C@@H]2COc2cc(NCc3ccc(C)nc3)c(=O)n(C)n2)nc1 [Example 11, 2-methyl-6-(((1S,2S)-2-(5-methylpyridin-2-yl)cyclopropyl)methoxy)-4-((6-methylpyridin-3-yl)methylamino)pyridazin-3(2H)-one] |
| 0.38 | COc1ccc([C@H]2C[C@@H]2COc2cc(NCc3c(C)noc3C)c(=O)n(C)n2)nc1 [Example 59, 4-(((3,5-dimethylisoxazol-4-yl)methyl)amino)-6-(((1S,2S)-2-(5-methoxy-pyridin-2-yl)cyclopropyl-)-methoxy)-2-methyl-pyridazin-3(2H)-one] |
| 0.0819 | Cc1nnc(CNc2cc(OC[C@H]3C[C@@H]3c3ccc(Cl)cn3)nn(C)c2=O)s1 [Example 25, 6-(((1S,2S)-2-(5-chloropyridin-2-yl)cyclopropyl)methoxy)-2-methyl-4-((5-methyl-1,3,4-thiadiazol-2-yl)methylamino)pyridazin-3(2H)-one] |
| 0.004 | Cc1ccc(CNc2cc(OC[C@H]3C[C@@H]3c3ccc4ccccc4n3)nn(C)c2=O)c(C)n1 [Example 57, 4-(((2,6-dimethylpyridin-3-yl)methyl)amino)-2-methyl-6-(((1S,2S)-2-(quinolin-2-yl)cyclopropyl)methoxy)-pyridazin-3(2H)-one] |
| 75 | COc1ccc([C@H]2C[C@@H]2COc2cc(NC(=O)c3cc(C)nn3C)c(=O)n(C)n2)nc1 [Example 101, N-(6-(((1S,2S)-2-(5-methoxypyridin-2-yl)-cyclopropyl)methoxy)-2-methyl-3-oxo-2,3-dihydropyridazin-4-yl)-1,3-dimethyl-1H-pyrazole-5-carboxamide] |
| 1.1 | Cc1ccc([C@H]2C[C@@H]2COc2cc(NCc3cnn4ccccc34)c(=O)n(C)n2)nc1 [Example 79, 2-methyl-6-(((1S,2S)-2-(5-methylpyridin-2-yl)cyclopropyl)methoxy)-4-((pyrazolo[1,5-a]pyridin-3-ylmethyl)amino)-pyridazin-3(2H)-one] |
| 0.089 | Cc1cccc([C@H]2C[C@@H]2COc2cc(NCc3cnn(C)c3)c(=O)n(C)n2)n1 [Example 117, 2-methyl-4-((1-methyl-1H-pyrazol-4-yl)methyl-amino)-6-(((1S,2S)-2-(6-methylpyridin-2-yl)cyclopropyl)methoxy) pyridazin-3(2H)-one] |
| 0.039 | COc1ccc([C@H]2C[C@@H]2COc2cc(NCc3ccc(C)nn3)c(=O)n(C)n2)nc1 [Example 76, 6-(((1S,2S)-2-(5-methoxy-pyridin-2-yl)cyclopropyl-)-methoxy)-2-methyl-4-(((6-methylpyridazin-3-yl)methyl)amino)pyridazin-3(2H)-one] |
| 0.004 | COc1ccc([C@H]2C[C@@H]2COc2nn(C)c(=O)c(NCc3nnc(C)s3)c2Br)nc1 [Example 140, 5-bromo-6-(((1S,2S)-2-(5-methoxypyridin-2-yl)cyclopropyl)methoxy)-2-methyl-4-((5-methyl-1,3,4-thiadiazol-2-yl)methyl-amino)pyridazin-3(2H)-one] |

| Structure (SMILES) | Ki [nM] |
| --- | --- |
| COc1ccc([C@H]2C[C@@H]2COc2cc(NCc3cccnc3)c(=O)n(C)n2)nc1 [Example 68, 6-(((1S,25)-2-(5-methoxy-pyridin-2-yl)cyclopropyl-)-methoxy)-2-methyl-4-((pyridin-3-ylmethyl)-amino)pyridazin-3(2H)one] | 11.6 |
